Test results as given in PMC6471062, “Suppression of the Ubiquitin Pathway by Small Molecule Binding to Ubiquitin Enhances Doxorubicin Sensitivity of the Cancer Cells” (Molecules, 2019).

Experiments:
ubiquitin = ubiquitin (Homo sapiens, UniProt P0CG47); assay: Intrinsic fluorescence quenching assay of ubiquitin; details: 50 µM ubiquitin, 0–500 µM compound, ex 274 nm / em 305 nm; read-out: Kd, dissociation constant upon binding to ubiquitin
Protocol: Intrinsic fluorescence quenching assays were performed as described previously. Briefly, intrinsic fluorescence quenching of ubiquitin by indicated compounds was observed by measuring the excitation and emission wavelength at 274 nm and 305 nm respectively of the mixture of 50 µM purified ubiquitin and 0–500 µM compound. Data were fitted to nonlinear regression curves with the equation described previously. F = −∆ε·[PC] + Fo(3) b = (Po + Co + Kd)(4) c = Po·Co(5) [PC] = [b − (b^2 − 4·c)^1/2]/2(6) where Fo and F are the normalized fluorescence intensity of the mixture of ubiquitin without the compound and with different concentrations of the compound, respectively. ∆ε is a difference in the extinction coefficient of the compound between their free and complex forms. [PC] is the concentration of protein/compound complex. Po and Co are the added concentration of ubiquitin and the compound, respectively in each experiment. Kd is the dissociation constant.

USP5 (Homo sapiens) = assay: Deubiquitination assay, cleavage of GST-Ubiquitin-HA by USP5 (SDS-PAGE band intensity); assay type: biochemical
Sequence of USP5 (Homo sapiens) (P45974 2-858, other chains not shown): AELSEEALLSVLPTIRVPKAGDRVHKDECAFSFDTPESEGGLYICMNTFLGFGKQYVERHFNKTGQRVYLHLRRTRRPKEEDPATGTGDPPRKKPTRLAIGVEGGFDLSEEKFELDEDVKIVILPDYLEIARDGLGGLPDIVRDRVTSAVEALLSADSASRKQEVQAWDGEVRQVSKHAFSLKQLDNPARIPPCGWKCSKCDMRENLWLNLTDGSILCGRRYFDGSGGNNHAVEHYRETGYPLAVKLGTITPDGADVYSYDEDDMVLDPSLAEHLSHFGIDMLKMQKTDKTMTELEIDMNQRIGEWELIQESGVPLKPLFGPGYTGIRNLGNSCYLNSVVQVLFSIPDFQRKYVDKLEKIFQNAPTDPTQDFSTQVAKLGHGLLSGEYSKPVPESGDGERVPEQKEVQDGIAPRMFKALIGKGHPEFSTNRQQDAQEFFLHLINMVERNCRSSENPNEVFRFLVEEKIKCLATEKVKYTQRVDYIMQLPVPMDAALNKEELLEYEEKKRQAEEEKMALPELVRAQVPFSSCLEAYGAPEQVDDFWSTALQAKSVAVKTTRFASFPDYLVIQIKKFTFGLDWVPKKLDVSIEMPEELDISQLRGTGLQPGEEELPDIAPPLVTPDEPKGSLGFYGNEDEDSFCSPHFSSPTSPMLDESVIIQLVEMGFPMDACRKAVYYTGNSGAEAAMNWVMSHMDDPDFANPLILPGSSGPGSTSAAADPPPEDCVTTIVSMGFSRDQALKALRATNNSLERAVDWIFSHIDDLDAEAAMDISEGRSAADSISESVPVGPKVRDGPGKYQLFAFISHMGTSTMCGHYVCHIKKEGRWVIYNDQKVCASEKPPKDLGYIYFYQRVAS
Protocol: (§1) For in vitro ubiquitination assays, 500 µM of ubiquitin was used for each ubiquitination reaction as described previously, in the absence or presence of 50–500 µM of CR. […] The generation of GST-ubiquitin from GST-Ubiquitin-HA as the mobility shifts were analyzed on 12.5% SDS-PAGE visualized by Coomassie blue staining. Band intensities were quantified by ImageJ [55] and used to generate the IC50 curves (log inhibitor vs. normalized response with variable slope) by GraphPad Prism version 6.0 for Windows (GraphPad Software, San Diego, CA, USA, www.graphpad.com).

E2-25K = assay: In vitro K48 polyubiquitination reaction with E2-25K; assay type: biochemical; details: purified E2-25K, increasing CR (50–500 µM), 500 µM ubiquitin, 37 °C
Protocol: (§2) Figure 5 CR inhibits K48- and K63- polyubiquitination in vitro. (a) Interacting surface of ubiquitin when complex with E2-25K and Ubc13 compared with the surface used for CR binding. (b,c) CR inhibits K48- (b) and K63-ubiquitinations (c). First, mono ubiquitin was mixed with UBA1, E2-25K or complex Mms2/Ubc13, and 0–500 µM CR in the presence or absence of ATP regeneration system. Then the mixture was incubated at 37 °C for […]. The reaction was stopped by adding 5X SDS loading buffer and the results were analyzed with 15% SDS-PAGE.
as §1, with “CR. The reactions were incubated at 37 °C for 4 h and 16 h for K63- and K48 polyubiquitination respectively. The reaction was terminated by adding 5X SDS sampling buffer and results were subjected to 15% SDS-PAGE followed by Coomassie Blue staining for analyses.” for “CR.”

Ubc13 = assay: In vitro K63 polyubiquitination reaction with Ubc13; assay type: biochemical; details: purified Ubc13 (Mms2/Ubc13), increasing CR (50–500 µM), 500 µM ubiquitin, 37 °C
Protocol: as §2
as §1, with “CR. The reactions were incubated at 37 °C for 4 h and 16 h for K63- and K48 polyubiquitination respectively. The reaction was terminated by adding 5X SDS sampling buffer and results were subjected to 15% SDS-PAGE followed by Coomassie Blue staining for analyses.” for “CR.”

H1299 cells = assay: Cytotoxicity, cell viability assay; assay type: cell-based
Protocol: (§3) Cell viability assays were performed as described previously. For the caspase assays, the media were removed, and cells were lysed in 200 µL lysis buffer containing 50 µL Caspase Glo 3/7 solution and incubated for 15 min. Results were observed by measuring the luminescence signal using KOMM-Nr (Berthold Technologies, Bad Wildbad, Germany) and normalized with the total protein concentration measured by the Bradford assay. Data were analyzed using GraphPad Prism version 6.0 for Windows with two tail t-test for statistical data analysis […]
Figure S7. Cytotoxicity of CR to cancer cells. H1299 cells were cultured in 96 -well plates. CR was added to final concentrations of 0.0 – 50.0 µM, and the cells were incubated for 24 h followed by cell viability assay. All error bars represent the standard deviation from at least 4 independent experiments. Statistical comparisons between groups were determined by Student’s t -test. If p -values are less than 0.05, they are statistically significant . NS, not […]
(1 picture or pasted object on this page, not shown here)

HCT116 cells = assay: Dox-induced cell death, colorimetric cell viability, HCT116; assay type: cell-based; details: 10 µM CR or 5 µM NSC697923 12 h, then Dox 1.25–5.0 μM 12 h
Protocol: Figure 7 CR enhances Dox sensitivity of cancer cells. (a,b) Enhancement of Dox-induced apoptosis of cancer cells by CR treatment. Dox–induced apoptosis of H1299 (a) and HCT116 (b) was quantified by colorimetric cell viability after treating 10 µM CR for 12 h followed by 12h treatment of Dox (0.0–5.0 µM). […] Caspase activity was quantified by luminogenic caspase activity assay. […] All error bars represent the standard deviation from at least four independent experiments. Statistical significance was calculated by the Student’s t-test (** p < 0.01, *** p < 0.001).
as §3, with “assay.” for “assay. Data were analyzed using GraphPad Prism version 6.0 for Windows with two tail t-test for statistical data analysis”
Figure S8. NSC697923 enhances Dox sensitivity of cancer cells. (a, b) Effect of NSC697923 to cancer cells’ viability in Dox treatment . Dox–induced cell death of H1299 ( a) and HCT116 ( b) was quantified by colorimetric cell viability assay after treating 5 µM NSC697923 for 12 h followed by 12h treatment of Dox (0.0 […]
NSC697923. Caspase activity was quantified by luminogenic caspase activity assay. All error bars represent the standard deviation from at least 4 independent experiments. *, P<0.05; **, P<0.01; ***, P<0.001.

## Nc1c(/N=N/c2ccc(-c3ccc(/N=N/c4cc(S(=O)(=O)O)c5ccccc5c4N)cc3)cc2)cc(S(=O)(=O)O)c2ccccc12 [CR, Congo red]
ubiquitin
  Kd: 14.4 ± 1.27 µM
USP5 (Homo sapiens)
  IC50: 13.4 ± 2.64 µM
E2-25K
  Inhibition of K48 polyubiquitination: effectively inhibited by CR in a dose-dependent manner
Ubc13
  Inhibition of K63 polyubiquitination: effectively inhibited by CR in a dose-dependent manner
H1299 cells; H1299, CR 0.0–50.0 µM, 24 h
  Effect on cell viability, compound alone: does not affect
H1299 cells; determined by cytotoxicity assays
  None-toxicity concentration: 10 µM
HCT116 cells
  Effect on Dox-induced cell death, HCT116: significantly enhanced Dox-induced cell death
